Test results as given in patent publication US11773373B2, “Method for amplifying CD8+T cells and cell subpopulations thereof in-vitro” (Shanghai Innovative Chang'An Biological Technology Co., Ltd., priority 2017, dated 2023).

Columns and labels:
[1] = test system: central memory CD8+ T cells (TCM); test: Proliferation of the central memory subpopulation of CD8+ T cells of healthy subjects; assay type: cell-based; conditions: in combination with anti-human CD3 antibody, compared with anti-human CD3 beads alone, 7 days
Description: (§1) 1. Peripheral blood mononuclear cells (PBMC) of healthy subjects were isolated.
(§2) 2. CD8+ T cells were sorted using an EasySep™ Negative Selection Human CD8+ T cell Enrichment kit (stem cell: 19053).
(§3) 3. The sorted CD8 cells were stained using Cell Proliferation Dye eFluor 670 (ebioscience: 65-0840-90).
(§4) 4. The cells were placed in a 96-well U-shaped bottom plate with 1×10^5 cells per well.
(§5) 5. The following stimulants and TLR agonists (invivoGen: tlr-kit1hw, human TLR1-9 Agonist KIT) were added in groups:
(§6) (The anti-human CD3 antibody used was magnetic beads coated with the antibody (CELLection Pan Mouse IgG Kit, Invitrogen: 11531D), wherein the ratio of the cells to the magnetic beads was 1:1)
(§7) 6. The cells were cultured in the 96-well U-shaped bottom plate, and cultured in a cell incubator for 7 days.
(§8) 7. The cells were labeled with antibodies CD8 (BD: 561423), CD45RA (eBioscience: 25-0458-42) and CCR7 (eBioscience: 17-1979-42), and the influence of different TLR agonists on the proliferation of CD8+ T subpopulations (TNaive: Naive T cells, TCM: central memory T cells, TEM: effector memory T cells) was detected by flow cytometry.

[2] = test system: effector memory T cells (TEM); test: Proliferation of the effector memory subpopulation of CD8+ T cells of HIV-1 infected individuals; assay type: cell-based, human; conditions: 7 days
From the text: (§9) 1. Peripheral blood mononuclear cells (PBMC) of HIV-1 infected individuals were isolated.
(§10) 2. CD8+ T cells were sorted using an EasySep™ Negative Selection Human CD8+ T cell Enrichment kit (Stemcell: 19053).
as §3, §4, §5
(§11) (The anti-human CD3 antibody and the anti-human CD28 antibody in the form of coated magnetic beads (CELLection Pan Mouse IgG Kit, Invitrogen: 11531D) were used to stimulate the cells, wherein the ratio of the cells to the magnetic beads was 1:1)
as §7
as §8, with “by a” for “by”, “cytometer.” for “cytometry.”

[3] = test system: central memory CD8+ T cells (TCM); test: Proliferation of the central memory subpopulation of CD8+ T cells of HIV-1 infected individuals; assay type: cell-based, human; conditions: 7 days
From the text: as §9, §10, §3, §4, §5, §11, §7
as §8, with “by a” for “by”, “cytometer.” for “cytometry.”

[4] = test system: effector memory T cells (TEM); test: Proliferation of the effector memory subpopulation of CD8+ T cells of healthy subjects; assay type: cell-based; conditions: in combination with anti-human CD3 antibody, compared with anti-human CD3 beads alone, 7 days
Description: as §1, §2, §3, §4, §5, §6, §7, §8

CD8+ T cells = test: Proliferation of sorted CD8+ T cells of healthy subjects (eFluor 670 dye, flow cytometry, 7 days); assay type: cell-based; conditions: in combination with anti-human CD3 antibody, compared with magnetic beads coated with anti-human CD3 antibody alone
From the text: 1. Peripheral blood mononuclear cells (PBMC) of healthy subjects were isolated according to Example 1.
as §10, §3, §4, §5
(The anti-human CD3 antibody and the anti-human CD28 antibody used were magnetic beads coated with the antibodies (CELLection Pan Mouse IgG Kit, Invitrogen: 11531D), wherein the ratio of the cells to the magnetic beads was 1:1)
as §7
7. The proliferation of the CD8+ T cells was detected by a flow cytometer under the stimulation conditions of different TLR agonists. FIG. 1A is a diagram showing the proliferation of CD8 cells under the conditions of blank control (left panel) as well as an anti-human CD3 antibody and an anti-human CD28 antibody (right panel). FIG. 1B is a statistical chart showing the proliferation proportion of CD8 cells under different stimulation conditions.

[5] = added to anti-human CD3/28 beads, compared with anti-human CD3/28 beads
[6] = added to anti-human CD3 beads, compared with anti-human CD3 beads alone

Molecule | proliferation of central memory CD8+ T cells (TCM) [1] | proliferation of effector memory T cells (TEM) [2, 5] | proliferation of effector memory T cells (TEM) [2, 6] | proliferation of central memory CD8+ T cells (TCM) [3, 5] | proliferation of central memory CD8+ T cells (TCM) [3, 6] | proliferation of effector memory T cells (TEM) [4] | proliferation of CD8+ T cells (CD8+ T cells)
FSL-1 | effectively stimulated | further enhanced | more effectively stimulated | further enhanced | more effectively stimulated | effectively stimulated | effectively stimulated
Flagellin: TLR5 agonist, S. typhimurium Flagellin (invivoGen: tlrl-epstfla-5) (protein, UniProt P06179 2-495, looked up) Flagellin: AQVINTNSLSLLTQNNLNKSQSALGTAIERLSSGLRINSAKDDAAGQAIANRFTANIKGLTQASRNANDGISIAQTTEGALNEINNNLQRVRELAVQSANSTNSQSDLDSIQAEITQRLNEIDRVSGQTQFNGVKVLAQDNTLTIQVGANDGETIDIDLKQINSQTLGLDTLNVQQKYKVSDTAATVTGYADTTIALDNSTFKASATGLGGTDQKIDGDLKFDDTTGKYYAKVTVTGGTGKDGYYEVSVDKTNGEVTLAGGATSPLTGGLPATATEDVKNVQVANADLTEAKAALTAAGVTGTASVVKMSYTDNNGKTIDGGLAVKVGDDYYSATQNKDGSISINTTKYTADDGTSKTALNKLGGADGKTEVVSIGGKTYAASKAEGHNFKAQPDLAEAAATTTENPLQKIDAALAQVDTLRSDLGAVQNRFNSAITNLGNTVNNLTSARSRIEDSDYATEVSNMSRAQILQQAGTSVLAQANQVPQNVLSLLR | effectively stimulated | further enhanced | more effectively stimulated | further enhanced | more effectively stimulated | effectively stimulated | effectively stimulated
